Measured values reported in patent US5750558A, “Oxime derivatives of indole and indene compounds as inhibitors of prostaglandin biosynthesis” (Abbott Laboratories, priority 1996, dated 1998).

Legend:
recombinant human PGHS-1 = target: T1, recombinant human PGHS-1 (Homo sapiens, UniProt P23219); assay: Inhibition of prostaglandin biosynthesis in recombinant human PGHS-1 enzyme assay (PGE2 by EIA); assay type: biochemical
T1 construct: made in house; host or cells: baculovirus/Sf9 insect cells (microsomes)
T1 sequence (P23219 24-599): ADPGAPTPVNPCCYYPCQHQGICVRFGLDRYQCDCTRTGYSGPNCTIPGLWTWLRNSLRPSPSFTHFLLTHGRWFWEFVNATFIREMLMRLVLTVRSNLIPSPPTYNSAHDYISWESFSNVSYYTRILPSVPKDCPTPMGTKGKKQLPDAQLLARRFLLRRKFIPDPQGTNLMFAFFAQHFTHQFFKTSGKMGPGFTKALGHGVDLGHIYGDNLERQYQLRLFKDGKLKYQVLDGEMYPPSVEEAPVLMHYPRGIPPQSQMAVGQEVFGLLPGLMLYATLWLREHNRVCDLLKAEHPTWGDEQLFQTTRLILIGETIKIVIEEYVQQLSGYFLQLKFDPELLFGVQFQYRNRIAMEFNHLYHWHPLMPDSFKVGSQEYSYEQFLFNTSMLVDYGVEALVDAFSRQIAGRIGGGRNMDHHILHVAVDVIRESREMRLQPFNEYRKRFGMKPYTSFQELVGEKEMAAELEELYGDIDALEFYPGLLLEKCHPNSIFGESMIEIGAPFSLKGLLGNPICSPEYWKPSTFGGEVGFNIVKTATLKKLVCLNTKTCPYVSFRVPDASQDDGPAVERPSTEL
Experimental: (§1) Inhibition of prostaglandin biosynthesis was evaluated in recombinant human PGHS-1 and PGHS-2 enzyme assays. Representative compounds dissolved in DMSO (3.3% v/v) were preincubated with microsomes from recombinant human PGHS-1 or PGHS-2 expressed in the baculovirus/Sf9 cell system (Gierse, J. K., Hauser, S. D., Creely, D. P., Koboldt, C., Rangwala, S., H., Isakson, P. C., and Seibert, K. Expression and selective inhibition of the constituitive and inducible forms of cyclooxygenase Biochem J. 1995, 305: 479.), together with the cofactors phenol (2 mM) and hematin (1 μM) for 60 minutes prior to the addition of 10 μM arachidonic acid. The reaction was allowed to run for 2.5 minutes at room temperature prior to quenching with HCl and neutralization with NaOH. PGE2 production in the presence and absence of the drug was determined by EIA analysis. The EIA was conducted in 96 well microtiter plates (Nunc Roskilde, Denmark) and optical density measured using a microplate reader (Vmax, Molecular Devices Corp., Menlo Park, Calif.). EIA reagents for prostaglandin determination were purchased from Perseptive Diagnostics, Cambridge, Mass. PGE2 levels were measured against standards prepared in the same milieu. The immunoassays were conducted as recommended by the manufacturer.

recombinant human PGHS-2 = target: T2, recombinant human PGHS-2 (Homo sapiens, UniProt P35354); assay: Inhibition of prostaglandin biosynthesis in recombinant human PGHS-2 enzyme assay (PGE2 by EIA); assay type: biochemical
T2 construct: made in house; host or cells: baculovirus/Sf9 insect cells (microsomes)
T2 sequence (P35354 18-604): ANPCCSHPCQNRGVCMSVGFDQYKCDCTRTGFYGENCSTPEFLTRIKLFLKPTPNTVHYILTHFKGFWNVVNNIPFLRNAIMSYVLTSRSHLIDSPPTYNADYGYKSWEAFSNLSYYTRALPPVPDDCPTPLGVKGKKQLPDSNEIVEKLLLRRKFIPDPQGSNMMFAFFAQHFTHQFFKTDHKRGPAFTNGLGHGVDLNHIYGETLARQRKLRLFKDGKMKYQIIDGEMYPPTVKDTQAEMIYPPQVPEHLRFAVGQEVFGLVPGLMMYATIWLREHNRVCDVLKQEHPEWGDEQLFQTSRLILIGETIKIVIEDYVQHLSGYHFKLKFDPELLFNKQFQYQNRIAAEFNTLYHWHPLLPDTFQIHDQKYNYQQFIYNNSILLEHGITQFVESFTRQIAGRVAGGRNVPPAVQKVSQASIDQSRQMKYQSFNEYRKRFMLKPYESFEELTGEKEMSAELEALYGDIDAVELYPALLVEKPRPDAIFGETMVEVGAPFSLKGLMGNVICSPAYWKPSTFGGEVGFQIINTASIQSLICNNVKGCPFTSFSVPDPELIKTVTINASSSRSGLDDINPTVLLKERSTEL
Experimental: as §1

PGHS-1 = conditions: background statement; cited from earlier work
PGHS-2 = conditions: background statement; cited from earlier work

SMILES | inhibition of PGHS-1 (PGHS-1) | inhibition of PGHS-2 (PGHS-2) | also measured
COc1ccc2c(c1)c(CC=NOCC(=O)OCC(O)CO)c(C)n2C(=O)c1ccc(Cl)cc1 (racemic) [Example 3, (4-chlorobenzoyl-5-methoxy-2-methylindol-3-yl) acetaldehyde-.omicron.-4-(2.3-dihydroxypropyloxycarbonylmethyl) oxime] | – | – | inhibition at 1 µM (recombinant human PGHS-1; @ 1 μM, human recombinant PGHS-1, read-out: PGHS-1 % inhibition (printed in PGHS-1 IC50 column)): 41%; inhibition at 0.1 µM (recombinant human PGHS-2; @ 0.1 μM, human recombinant PGHS-2, read-out: PGHS-2 % inhibition (printed in PGHS-2 IC50 column)): 70%
COc1ccc2c(c1)c(CC=NOCC(=O)O)c(C)n2C(=O)c1ccc(Cl)cc1 [Example 1, (4-chlorobenzoyl-5-methoxy-2-methylindol-3-yl) acetaldehyde-.omicron.-carboxymethyl oxime] | – | – | IC50 (recombinant human PGHS-2): 0.73 µM
COc1ccc2c(c1)c(CC=NOCC(=O)OCC1COC(C)(C)O1)c(C)n2C(=O)c1ccc(Cl)cc1 (stereo not shown) [Example 2, (4-chlorobenzoyl-5-methoxy-2-methylindol-3-yl) acetaldehyde-.omicron.-4-(2.2-dimethyldioxanylmethyloxycarbonylmethyl) oxime] | – | – | IC50 (recombinant human PGHS-1): 0.09 µM; IC50 (recombinant human PGHS-2): 0.003 µM
COc1ccc2c(c1)c(CC(=O)O)c(C)n2C(=O)c1ccc(Cl)cc1 [Indomethacin] | inhibit both PGHS-1 and PGHS-2 | inhibit both PGHS-1 and PGHS-2 | –
CC(C)Cc1ccc(C(C)C(=O)O)cc1 (stereo not shown) [ibuprofen] | inhibit both isozymes | inhibit both isozymes | –
COc1ccc2cc([C@H](C)C(=O)O)ccc2c1 [naproxen] | inhibit both isozymes | inhibit both isozymes | –
CC1=C(CC(=O)O)c2cc(F)ccc2/C1=C\c1ccc([S+](C)[O-])cc1 (stereo not shown) [sulindac] | inhibit both PGHS-1 and PGHS-2 | inhibit both PGHS-1 and PGHS-2 | –
